Results: PubChem BioAssay (NCI)
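Tested at 5 concentrations; 48 h exposure; 96-well plates; endpoints linearly interpolated, else capped at highest concentration. Here, GI50 denotes the concentration required for 50% inhibition of growth. TGI denotes the concentration required for complete inhibition of growth.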

Tests used:
Test in all cases: NCI anticancer screen, dose series, 48 h
HT29 colon = tested on: HT29 colon
SK-MEL-28 melanoma = tested on: SK-MEL-28 melanoma
786-0 renal = tested on: 786-0 renal
HCT-15 colon = tested on: HCT-15 colon
U251 CNS = tested on: U251 CNS
A498 renal = tested on: A498 renal
KM12 colon = tested on: KM12 colon
RXF 393 renal = tested on: RXF 393 renal
A549 NSCLC = tested on: A549 NSCLC
SK-OV-3 ovarian = tested on: SK-OV-3 ovarian

SMILES | GI50 (HT29 colon) | TGI (HT29 colon) | GI50 (SK-MEL-28 melanoma) | TGI (SK-MEL-28 melanoma) | GI50 (786-0 renal) | TGI (786-0 renal) | GI50 (HCT-15 colon) | TGI (HCT-15 colon) | GI50 (U251 CNS) | TGI (U251 CNS) | GI50 (A498 renal) | TGI (A498 renal) | GI50 (KM12 colon) | TGI (KM12 colon) | GI50 (RXF 393 renal) | TGI (RXF 393 renal) | GI50 (A549 NSCLC) | TGI (A549 NSCLC) | GI50 (SK-OV-3 ovarian) | TGI (SK-OV-3 ovarian)
CC(C)(C)C[C@H]1NC(C(=O)NCC[C@H](O)CO)[C@H](c2cccc(Cl)c2)[C@@]12C(=O)Nc1cc(Cl)c(F)cc12 (stereo not given in full) | 17 µM | 32.4 µM | 15.9 µM | 30.5 µM | 17 µM | 33.8 µM | 17.8 µM | 37.5 µM | 15 µM | 30.5 µM | 4.41 µM | 18.7 µM | 14.7 µM | 28.8 µM | 13.7 µM | 27.1 µM | 3.13 µM | 17.4 µM | 16.3 µM | 34.9 µM
CCN(Cc1ccc(F)c(F)c1)c1ccc(CO)c(Cl)c1 | 4.52 µM | 19.1 µM | 12.4 µM | 25.1 µM | 5.44 µM | 22.9 µM | 6.63 µM | 25 µM | 0.867 µM | 15.1 µM | 0.0353 µM | 0.153 µM | 13.9 µM | 28.4 µM | 2.73 µM | 15.9 µM | 1.89 µM | 19.1 µM | 5.94 µM | 19.3 µM
C[C@H](Nc1ncnc2nc[nH]c12)c1cc2cccc(Cl)c2c(=O)n1-c1ccccc1 | 5.92 µM | > 100 µM | 11.8 µM | > 100 µM | 1.42 µM | > 86.7 µM | 31.5 µM | > 100 µM | 11.8 µM | > 100 µM | 0.0491 µM | 0.446 µM | 27.1 µM | > 100 µM | 0.273 µM | 9.41 µM | 24.2 µM | > 100 µM | 10.8 µM | > 100 µM
C=CCc1c2c(c(OC)c3ccoc13)C(=O)/C(=C/c1ccccc1OC)O2 | 3.98 µM | > 100 µM | 5.21 µM | > 100 µM | 6.28 µM | > 100 µM | 3.6 µM | > 100 µM | 3.53 µM | > 100 µM | 5.81 µM | 79.2 µM | 3.49 µM | 22.3 µM | 2.47 µM | 6.92 µM | 4.12 µM | > 100 µM | 5.45 µM | 35.1 µM
CN(CCCN)CCCNc1nc2ccccc2c2[nH]c3ccccc3c12 | 0.193 µM | 0.951 µM | 0.342 µM | 1.17 µM | 0.169 µM | 0.853 µM | 0.446 µM | 9.68 µM | 0.159 µM | 1.07 µM | 1.61 µM | 3.08 µM | 0.0513 µM | 0.314 µM | 0.109 µM | 0.515 µM | 0.16 µM | 2.22 µM | 2.07 µM | 7.29 µM
CCN1C(=O)N(CC)C2C1NN=c1s/c(=C\c3cccnc3)c(=O)n12 (stereo not given) | 0.386 µM | > 100 µM | 0.957 µM | > 100 µM | 0.695 µM | > 100 µM | 0.414 µM | > 100 µM | 0.612 µM | > 100 µM | 0.224 µM | 1.01 µM | 0.464 µM | > 100 µM | 0.271 µM | 3.35 µM | 0.733 µM | > 100 µM | 2.02 µM | > 100 µM
